This note sets out measurements from ChEMBL document CHEMBL5576083, “Structure-Based Design and Synthesis of Covalent Inhibitors for Deubiquitinase and Acetyltransferase ChlaDUB1 of Chlamydia trachomatis” (J Med Chem, 2024).

SMILES strings stand for the structures. Active and inactive are the calls of the source. No cut-off for these calls is given here.

Assay [1] deals with T1, Ubiquitin carboxyl-terminal hydrolase 25 (Homo sapiens) (UniProt Q9UHP3).
T1 sequence (whole entry): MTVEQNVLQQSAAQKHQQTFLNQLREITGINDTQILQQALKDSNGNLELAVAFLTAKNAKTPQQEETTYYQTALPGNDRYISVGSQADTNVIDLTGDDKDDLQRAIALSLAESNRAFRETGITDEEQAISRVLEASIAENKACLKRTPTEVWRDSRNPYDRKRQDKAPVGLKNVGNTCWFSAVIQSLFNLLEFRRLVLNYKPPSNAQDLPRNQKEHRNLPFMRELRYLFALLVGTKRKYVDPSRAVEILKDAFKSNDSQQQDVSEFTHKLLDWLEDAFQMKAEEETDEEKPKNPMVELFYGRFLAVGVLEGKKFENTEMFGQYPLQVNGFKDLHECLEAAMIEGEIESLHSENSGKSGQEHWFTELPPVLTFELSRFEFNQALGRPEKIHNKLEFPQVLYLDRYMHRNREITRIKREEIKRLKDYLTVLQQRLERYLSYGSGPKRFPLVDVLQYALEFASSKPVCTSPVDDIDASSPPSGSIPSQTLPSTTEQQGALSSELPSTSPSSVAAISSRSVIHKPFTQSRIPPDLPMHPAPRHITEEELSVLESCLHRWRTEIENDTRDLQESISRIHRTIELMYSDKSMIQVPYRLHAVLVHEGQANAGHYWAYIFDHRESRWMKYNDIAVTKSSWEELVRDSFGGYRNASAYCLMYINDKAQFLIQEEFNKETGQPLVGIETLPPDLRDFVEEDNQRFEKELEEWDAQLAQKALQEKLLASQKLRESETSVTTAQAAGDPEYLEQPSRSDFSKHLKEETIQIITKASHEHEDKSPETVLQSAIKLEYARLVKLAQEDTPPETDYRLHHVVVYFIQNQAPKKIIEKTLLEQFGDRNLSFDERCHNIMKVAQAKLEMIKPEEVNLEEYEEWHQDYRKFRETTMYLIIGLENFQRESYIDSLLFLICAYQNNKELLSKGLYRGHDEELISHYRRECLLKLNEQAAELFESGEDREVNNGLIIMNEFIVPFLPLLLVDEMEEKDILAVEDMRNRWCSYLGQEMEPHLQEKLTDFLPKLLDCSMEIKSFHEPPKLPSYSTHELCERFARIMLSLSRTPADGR
Briefly: Inhibition of human USP25 (765 to 1055 residues) expressed in Escherichia coli Rosetta 2 (DE3) cells using Ub-Rh110Gly as fluorogenic substrate at 40 uM preincubated for 1 hr followed by substrate addition by plate reader analysis.

In a further assay the test system is Chlamydia trachomatis. Briefly: Antimicrobial activity against Chlamydia trachomatis serovar L2 infected in human HeLa cells assessed as reduction in inclusion circumference at 12.5 ug/ml measured after 24 hrs of post-infection by microscopic analysis (reference value: 31.72 micrometer). In kind it is functional. Particulars: dose 12.5 µg/ml.

For the molecule `N#Cc1ncc(C(=O)NCc2ccc(C(=O)NC34CC5CC(CC(C5)C3)C4)cc2)cn1`, in assay [1], the inhibition entry was “inactive”. The Activity in the assay on Chlamydia trachomatis is listed as 14.75 um.
